Consider seven molecules from patent publication US12202834B2, “Solid state forms of oclacitinib maleate” (VationPharma B.V., priority 2019, dated 2025).

“And” between values parts separate entries of the source, which are not always exact repeats. Equal entries are not always repeated. Structures can show the parent of a compound that is named as a salt.

Holding throughout (assay type): physicochemical
Series [1] is described as follows: Stability tests of solid forms (storage, solid form analysed by XRPD). The settings on record: for Relative humidity at which the solid form is stable / can be stored: general statement in description. As for the experimental part: The stability of the solid forms of oclacitinib obtained was tested at three different conditions, i.e. storage at 25° C. at 0% relative humidity, 40° C. at 75% rH and 25° C. at 100% rH. Alternatively or additionally, the stability of the solid forms of oclacitinib obtained was tested at 25° C. at 25% rH.

Series [2] in a line: Hygroscopicity of solid state form. The settings on record: general statement in description.
Series [3] can be described thus: Thermodynamic solubility test (saturated solution, gravimetric). The settings on record: for Solubility, Average: average of three determinations; for Solubility compared to oclacitinib maleate form A: form A normalized to 100% (FIG. 16); for Solubility: single determination, saturated solution, 15 minutes stirring (600 rpm), 15 minute equilibrium, 0.2 μm filter. Here is the method:
The thermodynamic solubility of different forms of oclacitinib maleate was tested by generating a saturated solution for each form (i.e. oclacitinib maleate form A, amorphous oclacitinib maleate and monohydrate form of oclacitinib maleate). After 15 minutes of stirring (600 rpm) and further 15 minute of an equilibrium phase the solution was filtrated over an 0.2 μm syringe filter into a vial with a known weight.
Subsequently, the solvent was allowed to evaporate and the vial was then weighted again.

Setting [4] is: relatively high humidity, 25° C. at 100% rH.
Setting [5] is: relatively high humidity, 40° C. at 75% rH.
[6] abbreviates: relatively low humidity, 25° C. at 0% rH.

Take `CNS(=O)(=O)C[C@H]1CC[C@H](N(C)c2ncnc3[nH]ccc23)CC1` [tetramethyl urea solvate form of oclacitinib maleate]: the “Solid form found after storage” value is listed as “TMU solvate” in series [1] (25° C./0% rH, Week 1); “TMU solvate” in series [1] (25° C./0% rH, Week 4); “TMU solvate” in series [1] (25° C./0% rH, Week 12); “Form B” in series [1] (25° C./100% rH, Week 1); “Form B” in series [1] (25° C./100% rH, Week 4); “Form B” in series [1] (25° C./100% rH, Week 12). Also, the “Solid form found after storage” value in series [1] (40° C./75% rH, Week 1) was “Form B”; in series [1] (40° C./75% rH, Week 4), “Form B”; in series [1] (40° C./75% rH, Week 12), “Form B”. For the same molecule, the “Stability of solid form” value in series [1] (setting [4]) was “converses into oclacitinib maleate form B”; in series [1] (setting [5]), “converses into oclacitinib maleate form B”; in series [1] (setting [6]), “is stable”.

In the case of `CNS(=O)(=O)C[C@H]1CC[C@H](N(C)c2ncnc3[nH]ccc23)CC1` [example 8, amorphous oclacitinib maleate], the “Change of solid state on storage (XRPD)” value in series [1] (25° C. at 0% rH, after 2 weeks) is recorded as “remains stable”; in series [1] (25° C. at 25% rH, 3 weeks), “does not show any change of solid state”; in series [1] (25° C. at 100% rH, after 2 weeks) it was “conversion (intermediate graphs) of the amorphous phase to the monohydrate form of oclacitinib maleate”; in series [1] (40° C. at 75% rH, after 2 weeks), “conversion (intermediate graphs) of the amorphous phase to the monohydrate form of oclacitinib maleate”.

Regarding `CNS(=O)(=O)C[C@H]1CC[C@H](N(C)c2ncnc3[nH]ccc23)CC1` [example 9, amorphous oclacitinib maleate], the “Change of solid state on storage (XRPD)” value in series [1] (25° C. at 25% rH, 3 weeks) was “mixture (upper graph) comprising amorphous oclacitinib maleate and oclacitinib maleate form A”.

As to `CNS(=O)(=O)C[C@H]1CC[C@H](N(C)c2ncnc3[nH]ccc23)CC1` [oclacitinib maleate form B], the “Solid form found after storage” value is “Form B” in series [1] (25° C./0% rH, Week 1); “Form A” in series [1] (25° C./0% rH, Week 4); “Form A” in series [1] (25° C./0% rH, Week 12); “Form B” in series [1] (25° C./100% rH, Week 1); “Form B” in series [1] (25° C./100% rH, Week 4); “Form B” in series [1] (25° C./100% rH, Week 12). Moreover, the “Solid form found after storage” value was “Form B” in series [1] (40° C./75% rH, Week 1); “Form B” in series [1] (40° C./75% rH, Week 4); “Form B” in series [1] (40° C./75% rH, Week 12). Also, the “Relative humidity at which the solid form is stable / can be stored” value in series [1] is recorded as “at least 30%”. The “Stability of solid form” value in series [1] (setting [4]) is recorded as “is stable”; in series [1] (setting [5]), “is stable”; in series [1] (setting [6]), “converses into oclacitinib maleate form A”. The Hygroscopicity entry in series [2] is “non-hygroscopic”.

Consider `CNS(=O)(=O)C[C@H]1CC[C@H](N(C)c2ncnc3[nH]ccc23)CC1` [Amorphous, amorphous oclacitinib maleate], for which, in series [3], the “Solubility, Average” value was 37.834 mg/mL; the Solubility is 37.095 mg/mL and 37.430 mg/mL and 38.976 mg/mL. For the same molecule, in series [3] (listed as amorphous form of oclacitinib maleate), the “Solubility compared to oclacitinib maleate form A” value is recorded as “more than twice as soluble”.

Take `CNS(=O)(=O)C[C@H]1CC[C@H](N(C)c2ncnc3[nH]ccc23)CC1` [Form A, N-methyl(4-(methyl(7H-pyrrolo[2,3-d]pyrimidin-4-yl)amino)cyclohexyl)methanesulfonamide maleic acid salt, reference compound]: in series [1] (listed as oclacitinib maleate form A), the “Relative humidity at which the solid form is stable / can be stored” value is given as “at most 30%”. In addition, in series [3], the “Solubility, Average” value is on record as 17.135 mg/mL; the Solubility is 16.914 mg/mL and 16.690 mg/mL and 17.802 mg/mL.

Consider `CNS(=O)(=O)C[C@H]1CC[C@H](N(C)c2ncnc3[nH]ccc23)CC1` [monohydrate form of oclacitinib maleate], for which the “Solid form found after storage” value in series [1] (25° C./0% rH, Week 1) is on record as “Monohydrate”; in series [1] (25° C./0% rH, Week 4), “Monohydrate”; in series [1] (25° C./100% rH, Week 1), “Monohydrate”; in series [1] (25° C./100% rH, Week 4), “Monohydrate”; in series [1] (40° C./75% rH, Week 1) it was “Monohydrate”; in series [1] (40° C./75% rH, Week 4), “Monohydrate”. Also, in series [1] (all three storage conditions (25° C./0% rH, 40° C./75% rH, 25° C./100% rH)), the “Stability of solid form” value was “stable under all storage conditions”. Further, in series [1] (low (<50% rH) and high (>50% rH) relative humidity), the “Stability of solid state with respect to relative humidity, in words” value is reported as “stable by any relative humidity of the surrounding air”. Further, in series [3], the “Solubility, Average” value came out at 8.994 mg/mL. The “Solubility compared to oclacitinib maleate form A” value in series [3] is recorded as “halved”. The Solubility in series [3] is 9.053 mg/mL and 9.047 mg/mL and 8.884 mg/mL.

As usually defined, the Solubility is the concentration that dissolves in the medium under given conditions. Higher therefore signals much dissolved substance.
